# From US20240325330A1, “NEW METHOD TO TREAT ACIDOSIS RELATED DISEASES WITH ACETOACETATE” (INSTITUT NATIONAL DE LA SANTÉ ET DE LA RECHERCHE MÉDICALE, priority 2021, published 2024)
# How the values were obtained:
# [1] = test system: human monocytes differentiated into macrophages under lactic acidosis (LA-Mφ); assay: Intracellular ATP levels in macrophages under lactic acidosis; assay type: cell-based; details: 5 mM AcAc, 10 mM lactic acid, FIG. 1A
# Method: Peripheral blood mononuclear cells (PBMC) were obtained from healthy human volunteers (Blood collection center, Angers, France; agreement ANG-2017-01) by standard density-gradient centrifugation on lymphocyte separation medium (Eurobio, Courtaboeuf, France). CD14+ monocytes were then isolated by positive magnetic cell-sorting (Miltenyi Biotec, Bergisch Gladbach, Germany). […]
# The intracellular levels of ATP in whole-cell lysates were determined with enzymatic assays (Abcam, Cambridge, UK), according to the manufacturer's instructions. ATP was quantified in (i) macrophages generated in the absence (Mφ) or presence of lactic acid (LA-Mφ) or of lactic acid and acetoacetate (LA-Mφ+AcAc), (ii) macrophages with or without depolarized mitochondria (“Depol” and “Pol” populations, respectively) isolated from day 3 LA-Mφ by flow cytometry using MitoTracker Green and MitoTracker Deep Red probes (purity>99%) and, (iii) PBMC isolated from septic shock patients (n=3) were cultured for 24 h in a medium containing 0.5 g/L glucose, supplemented with 5 mM of acetoacetate (AcAc) or with 2 g/L of glucose (Glc). […]
# [2] = test system: PBMC from septic shock patients; assay: Mitochondrial depolarization in cultured PBMC from sepsis patients; assay type: cell-based, human; details: 24 h, medium with 5 mM AcAc, FIG. 4B
# Method: Mitochondrial membrane potential was assessed by incubating with 10 nM MitoTracker Green and 5 nM MitoTracker DeepRed (Thermo Fisher Scientific, Waltham, MA) in PBS containing 1% (w/v) BSA in PBS (PBS/BSA) at 37° C. for 15 min. Cells were washed and incubated with 0.5 μg/mL DAPI to exclude dead cells. Flow cytometry data were acquired with a FACSCanto II flow cytometer (BD Biosciences, San Jose, CA) and analyzed with FlowJo software (Tree Star, Ashland, OR).
# Peripheral blood mononuclear cells (PBMC) from septic patients and healthy subjects were purified by standard density-gradient centrifugation on lymphocyte separation medium (Eurobio, Courtaboeuf, France). PBMC were cultured for 24 h in a medium consisting of RPMI 1640 medium with L-glutamine and without glucose (Lonza, Verviers, Belgium) and supplemented with 6% FCS (Eurobio), 3% autologous plasma, 0.5 g/L glucose, 100 U/mL penicillin and 100 μg/mL streptomycin (all from Lonza) in the presence of 2 ng/mL GM-CSF (R&D Systems). In some experiments, the culture medium was supplemented with 5 mM AcAc or adjusted to 4 g/L glucose. After 24 h culture, the percentage of cells with depolarized mitochondria was assessed as described above. After 3 days of culture, intracellular ATP has been quantified as described above.
# [3] = test system: PBMC from septic shock patients; assay: Intracellular ATP in PBMC from septic shock patients; assay type: cell-based, human; details: 5 mM AcAc, normalized on 0.5 g/L glucose, FIG. 1B
# Method: The intracellular levels of ATP in whole-cell lysates were determined with enzymatic assays (Abcam, Cambridge, UK), according to the manufacturer's instructions. ATP was quantified in (i) macrophages generated in the absence (Mφ) or presence of lactic acid (LA-Mφ) or of lactic acid and acetoacetate (LA-Mφ+AcAc), (ii) macrophages with or without depolarized mitochondria (“Depol” and “Pol” populations, respectively) isolated from day 3 LA-Mφ by flow cytometry using MitoTracker Green and MitoTracker Deep Red probes (purity>99%) and, (iii) PBMC isolated from septic shock patients (n=3) were cultured for 24 h in a medium containing 0.5 g/L glucose, supplemented with 5 mM of acetoacetate (AcAc) or with 2 g/L of glucose (Glc). Results are normalized on the condition 0.5 g/L glucose (None).
# Peripheral blood mononuclear cells (PBMC) from septic patients and healthy subjects were purified by standard density-gradient centrifugation on lymphocyte separation medium (Eurobio, Courtaboeuf, France). […] After 24 h culture, the percentage of cells with depolarized mitochondria was assessed as described above. After 3 days of culture, intracellular ATP has been quantified as described above.
# U937 cell line = details: cited from earlier work
compound,measurement,setting,value
"CC(=O)CC(=O)[O-].[Li+] [AcAc, lithium acetoacetate]",intracellular levels of ATP,[1],restored the intracellular levels of ATP
same,percentage of cells with depolarized mitochondria,[2],significantly reduced
same,levels of intracellular ATP,[3],increased
same,IL-6 and TNF production,U937 cell line,enhance IL-6 and TNF production
